Results on 11 compounds are retold here after US4626540A, “Substituted 1-amino-4-nitro-acridinones and methods of treating bacterial infections and leukemia with them” (Warner-Lambert Company, priority 1984, dated 1986).

Molecules are shown by their SMILES. Structures can show the parent of a compound that is named as a salt. Some results are limits rather than exact numbers.

The subject of one experiment is Escherichia coli. The experiment is described as follows: In vitro antibacterial (ABMF) microdilution test, Escherichia coli. The experiment is classed as cell-based. Particulars: Mueller-Hinton broth, 37° C., 16-24 hours, read-out: ABMF minimal inhibitory conc, E. coli. From the text: (§1) Still another test protocol is the in vitro antibacterial (ABMF) test which is a recognized standard microdilution susceptibility procedure in Mueller-Hinton broth against Gram-positive and Gram-negative bacterial test organisms. The procedure is a modification of a state-of-the-art procedure reported in Manual of Clinical Microbiology, Lennette, E. H., ed., by Barry, A. L. and C. Thornsberry at pages 463-474 and by Gavan, T. L. and A. L. Barry at pages 459-462, American Society for Microbiology, Washington, 1980.
(§2) In the test, a given bacterial culture is used to inoculate individual test wells of microdilution trays containing growth medium and test compound, the latter in a microdilution series: 1000, 333, 111, 37, 12, 4, 1.4, and 0.46 micrograms per milliliter. […] For convenience, values are reported for Escherichia coli, Corynebacterium Sp. ATCC 21698, Branhamella catarrhalis, Streptococcus pneumoniae, and Bacillus cereus.
In general terms: In broth dilution the organism is exposed to a series of concentrations in liquid medium.

A further experiment concerns Branhamella catarrhalis. Nature of the experiment: In vitro antibacterial (ABMF) microdilution test, Branhamella catarrhalis. The experiment is classed as cell-based. To be noted: Moraxella catarrhalis; Mueller-Hinton broth, 37° C., 16-24 hours; read-out: ABMF minimal inhibitory conc, B. cat.
From the text: as §1, §2

The subject of another experiment is Bacillus cereus. Nature of the experiment: In vitro antibacterial (ABMF) microdilution test, Bacillus cereus. Particulars: Mueller-Hinton broth, 37° C., 16-24 hours, read-out: ABMF minimal inhibitory conc, B. cer. The class given is cell-based.
From the text: as §1, §2

The subject of experiment [1] is Corynebacterium Sp. ATCC 21698. Nature of the experiment: In vitro antibacterial (ABMF) microdilution test, Corynebacterium Sp. The experiment is classed as cell-based. Particulars: ATCC21698, Mueller-Hinton broth, 37° C., 16-24 hours, read-out: ABMF minimal inhibitory conc, Coryn. Species.
From the text: as §1, §2

In experiment [2] the test system is L1210 murine leukemia cell lines. The experiment is described as follows: In vitro antitumor screening (PDC test), L1210 murine leukemia cell growth. To be noted: Mus musculus, 72 h; L1210 cells, 37° C., three days; value is ID50 multiplied by 10^7. The experiment is classed as cell-based. As to the method:
Another test protocol is the in vitro antitumor screening (PDC test) of compounds of the present invention on L1210 murine leukemia cell lines. L1210 cells, a murine leukemia cell line, were grown in RPMI 1640 supplemented with 5% fetal bovine serum and gentamicin (50 μg/ml).
Drug dilutions were prepared in the apropriate solvent and 20 μl of each dilution were added to 24-well Linbro tissue culture plats, followed by the addition of M 2.0 ml of cell suspension containing 3×10^4 cells per ml. Solvent and medium controls were included in each test. After incubation at 37° C. for three days in 5% CO2, the contents of each well were removed and the cells counted in a ZBI Coulter counter. Percent growth was calculated relative to the controls and the levels of drug activity wre expressed as ID50 in moles per liter using probit paper.

Experiment [3] relates to lymphocytic leukemia P388. The experiment is described as follows: In vivo lymphocytic leukemia P388 test. Details: species or system CD2 F1 mice. Particulars: Mus musculus, P388, ip, intraperitoneal, once daily for five days, survival time treated/control, read-out: P388 in vivo T/C × 100. The procedure:
Another test protocol is the in vivo lymphocytic leukemia P388 test. the animals used are either male or female CD2 F1 mice, six or seven animals per test group. The tumor transplant is by intraperitoneal injection of dilute ascitic fluid containing cells of lymphocytic leukemia P388. The test compounds are administered intraperitoneally once daily for five consecutive days at various doses following tumor inoculation. The animals are weighed and survivors are recorded on a regular basis for 30 days. A compound is designated "toxic" if, at a given dose, all animals die prior to four days after the first injection of drug. A ratio of survival time for treated (T)/control (C) animals is calculated. A criterion for efficacy is a ratio T/C times 100 greater than or equal to 125. See Cancer Chemotherapy Reports, Part 3, 3, 1 (1972) for a comprehensive discussion of the protocol.

In a further experiment the test system is Streptococcus pneumoniae. The experiment is described as follows: In vitro antibacterial (ABMF) microdilution test, Streptococcus pneumoniae. The class given is cell-based. To be noted: Mueller-Hinton broth, 37° C., 16-24 hours, read-out: ABMF minimal inhibitory conc, S. pneu.
From the text: as §1, §2

As usually defined, the IC50 is the point on the concentration scale where inhibition reaches its midpoint. The low end stands for inhibition by little substance, the high end for a need for much substance. Take `CCN(CC)CCNc1ccc([N+](=O)[O-])c2[nH]c3ccccc3c(=O)c12.CS(=O)(=O)O` [Example 1, 1-[[2-(Diethylamino)ethyl]amino]-4-nitro-9-(10H)-acridinone, methanesulfonate (1:1)]: the MIC is 12.3 µg/mL in the experiment on Escherichia coli; below 0.46 µg/mL in the experiment on Branhamella catarrhalis; 12.3 µg/mL in the experiment with Bacillus cereus; below 0.46 µg/mL in experiment [1]; below 0.46 µg/mL in the experiment with Streptococcus pneumoniae. In experiment [2], this compound gave an IC50 of 450 nM. Besides, the response vs control in vivo at 25 mg/kg in experiment [3] stood at 145%. For the same compound, in experiment [3], the response vs control in vivo at 50 mg/kg amounted to 172%.

For the compound `CCCCOc1ccc2[nH]c3c([N+](=O)[O-])ccc(NCCN(CC)CC)c3c(=O)c2c1.CS(=O)(=O)O` [Example 6, 7-Butoxy-1-[[2-(diethylamino)ethyl]amino]-4-nitro-9-(10H)-acridinone, methanesulfonate], the MIC (in the experiment with Escherichia coli; in the experiment on Branhamella catarrhalis; in the experiment on Bacillus cereus; in experiment [1]; in the experiment on Streptococcus pneumoniae) was above 1000 µg/mL in each case. In experiment [2], this compound yielded a half-inhibitory concentration (IC50) of 580 nM. For the same compound, the response vs control in vivo at 25 mg/kg in experiment [3] is 139%. Also, in experiment [3], the response vs control in vivo at 50 mg/kg stood at 160%.

Regarding `CCCCOc1ccc2[nH]c3c([N+](=O)[O-])ccc(NCCN(C)C)c3c(=O)c2c1.CS(=O)(=O)O` [Example 11, 7-Butoxy-1-[[2-(dimethylamino)ethyl]amino]-4-nitro-9(10H)-acridinone, methanesulfonate], the MIC (in the experiment with Escherichia coli; in the experiment on Branhamella catarrhalis; with Bacillus cereus; in experiment [1]; in the experiment with Streptococcus pneumoniae) was above 1000 µg/mL in each case. In experiment [2], this compound displayed an IC50 of 1600 nM. Also, in experiment [3], the response vs control in vivo at 25 mg/kg is 130%. The response vs control in vivo at 50 mg/kg in experiment [3] came out at 175%.

As for `COc1ccc2[nH]c3c([N+](=O)[O-])ccc(NCC[N+](C)(C)[O-])c3c(=O)c2c1` [Example 14, 1-[[2-(Dimethylamino)ethyl]amino]-7-methoxy-4-nitro-9(10H)-acridinone, N^ω -oxide, 3-chlorobenzoate salt], the MIC was 12.3 µg/mL with Escherichia coli; 12.3 µg/mL with Branhamella catarrhalis; 333 µg/mL with Bacillus cereus; 1.4 µg/mL in experiment [1]; below 0.46 µg/mL in the experiment on Streptococcus pneumoniae. The response vs control in vivo at 50 mg/kg in experiment [3] was 157%.

With `CN(C)CCCNc1ccc([N+](=O)[O-])c2[nH]c3ccc(OC(=O)C(C)(C)C)cc3c(=O)c12` [Example 25, [8-[[3-(Dimethylamino)propyl]amino]-9,10-dihydro-5-nitro-9-oxo-2-acridinyl]-2,2-dimethylpropanoate, methanesulfonate (1:1), hemihydrate], the MIC with Escherichia coli was determined as 111 µg/mL; in the experiment with Branhamella catarrhalis, 333 µg/mL; with Bacillus cereus it was 111 µg/mL; in experiment [1] it was 333 µg/mL; in the experiment on Streptococcus pneumoniae it was 333 µg/mL. Moreover, the IC50 in experiment [2] was 15 nM. Besides, the response vs control in vivo at 1.56 mg/kg in experiment [3] (1.56 mg/kg) came to 156%. For the same compound, the response vs control in vivo at 3.12 mg/kg in experiment [3] (3.12 mg/kg) amounted to 173%. For the same compound, the response vs control in vivo at 6.25 mg/kg in experiment [3] (6.25 mg/kg) stood at 214%. For the same compound, the response vs control in vivo at 12.5 mg/kg in experiment [3] (12.5 mg/kg) came to 248%.

Take `CCN(CC)CCNc1ccc([N+](=O)[O-])c2[nH]c3ccc(OC)c(Cl)c3c(=O)c12` [Example 27, 1-Chloro-8-[[2-Diethylamino)ethyl]amino]-2-methoxy-5-nitro-9(10H)acridinone, methanesulfonate]: the MIC in the experiment on Escherichia coli was 4.1 µg/mL; in the experiment on Branhamella catarrhalis, 1.4 µg/mL; in the experiment on Bacillus cereus, 4.1 µg/mL; in experiment [1] it was below 0.46 µg/mL; with Streptococcus pneumoniae it was 1.4 µg/mL. Moreover, in experiment [2], half-maximal inhibition (IC50) was put at 420 nM.

Regarding `CCN(CC)CCNc1ccc([N+](=O)[O-])c2[nH]c3cc(O)ccc3c(=O)c12.CS(=O)(=O)O` [Example 28, 1-[[2-(Diethylamino)ethyl]amino]-6-hydroxy-4-nitro-9(10H)acridinone, methanesulfonate (1:1)], the MIC in the experiment with Escherichia coli was 1.4 µg/mL; in the experiment on Branhamella catarrhalis it was below 0.46 µg/mL; in the experiment on Bacillus cereus it was 1.4 µg/mL; in experiment [1], below 0.46 µg/mL; in the experiment on Streptococcus pneumoniae, below 0.46 µg/mL. Besides, the IC50 in experiment [2] stood at 360 nM.

Regarding `CCN(CC)CCNc1ccc([N+](=O)[O-])c2[nH]c3cccc(O)c3c(=O)c12.CS(=O)(=O)O` [Example 29, 1-[[2-(Diethylamino)ethyl]amino]-8-hydroxy-4-nitro-9-(10H)-acridinone, methanesulfonate], the MIC was 1.4 µg/mL in the experiment on Escherichia coli; below 0.46 µg/mL in the experiment with Branhamella catarrhalis; below 0.46 µg/mL with Bacillus cereus; below 0.46 µg/mL in experiment [1]; below 0.46 µg/mL in the experiment on Streptococcus pneumoniae. Besides, the IC50 in experiment [2] turned out to be 88 nM.

As for `CCN(CC)CCNc1ccc([N+](=O)[O-])c2c1c(=O)c1ccccc1n2C` [Example 30, 1-[[2-(Diethylamino)ethyl]amino]-10-methyl-4-nitro-9(10H)-acridinone, methanesulfonate (1:1), hydrate (1:1)], the MIC in the experiment on Escherichia coli came to 111 µg/mL; in the experiment with Branhamella catarrhalis, 111 µg/mL; in the experiment with Bacillus cereus, 111 µg/mL; in experiment [1] it was 111 µg/mL; with Streptococcus pneumoniae, 37 µg/mL. For the same compound, the response vs control in vivo at 200 mg/kg in experiment [3] stood at 147%.

On to `CCN(CC)CCNc1ccc([N+](=O)[O-])c2c1c(=O)c1cc(OC)ccc1n2C.CS(=O)(=O)O` [Example 31, 1-[[2-(Diethylamino)ethyl]amino]-7-methoxy-10-methyl-4-nitro-9(10H)-acridinone, methanesulfonate (1:1)], for which the MIC in the experiment on Escherichia coli is above 1000 µg/mL; in the experiment on Branhamella catarrhalis it was above 1000 µg/mL; in the experiment with Bacillus cereus it was above 1000 µg/mL; in experiment [1], 1000 µg/mL; in the experiment on Streptococcus pneumoniae, above 1000 µg/mL. For the same compound, the response vs control in vivo at 100 mg/kg in experiment [3] turned out to be 128%. For the same compound, the response vs control in vivo at 200 mg/kg in experiment [3] came out at 128%.

For `CN(C)CCNc1ccc([N+](=O)[O-])c2c1c(=O)c1ccccc1n2C.CS(=O)(=O)O` [Example 32, 1-[[2-(Dimethylamino)ethyl]amino]-10-methyl-4-nitro-9(10H)-acridinone, methanesulfonate (1:1)], the MIC was 37 µg/mL with Escherichia coli; above 1000 µg/mL in the experiment on Branhamella catarrhalis; above 1000 µg/mL in the experiment with Bacillus cereus; 333 µg/mL in experiment [1]; 12.3 µg/mL with Streptococcus pneumoniae. Also, half-maximal inhibition in experiment [2] (IC50) required 3200 nM. For the same compound, in experiment [3], the response vs control in vivo at 50 mg/kg came to 126%. The response vs control in vivo at 100 mg/kg in experiment [3] came out at 146%.
